“Also recorded” adds a separate entry of the source.
Columns and labels:
[1] = test system: embryogenic callus from ovules of Jatropha curcas; assay: Somatic embryo development and maturation from embryogenic callus; type: cell-based
Protocol: (§1) The sterilized flower buds were dissected using stereo microscope and the ovules were isolated and injured using dissection needle. The injured ovule explants were inoculated onto initiation medium supplemented with different phytohormones and incubated in dark for 40 days. The callus induced from these ovules was transferred to the fresh initiation medium and cultured in the light (16/8 h (light/dark) photoperiod period, light intensity of 25 μE m^−2s^−1) for somatic embryo development and maturation. The callus with developing and maturing somatic embryos were subcultured every two weeks. The mature cotyledon shaped somatic embryos that developed from this embryogenic callus were transferred to germination medium for germination. The germinating somatic embryos were subcultured every two weeks. The germinated plantlets were hardened and transferred to green house. All cultures were maintained at 25° C.±2° C. with 55%-60% relative humidity. Approximately 12-15 mature cotyledon shaped embryos were developed per 100 mg of embryogenic callus, and 95% of the somatic embryos were developed.
Induction of callus occurred in MS medium containing different auxins and cytokinins individually as well as in combinations.

[2] = test system: ovule explants of Jatropha curcas; assay: Induction of embryogenic callus from ovule explants on MS initiation medium; type: cell-based
Text: (§2) The initiation medium was MS basal medium (MS mineral salts and vitamins) supplemented with sucrose (3%) as the carbon source and included phytoagar (0.8%) as a gelling agent. The pH of the medium was 5.8. The germination medium was MS basal medium supplemented with sucrose (3%) as the carbon source and included phytogel (0.25%) as a gelling agent. The pH of the medium was 5.8. The media were dispensed into sterilized Petri dish (90×15 mm size, plastic polycarbonate, Canada). The chemicals used for media preparations were of analytical grade (Duchefa Biochemie, Haarlem, The Netherlands and Sigma Aldrich, Inc., St Louis, USA).
Different hormones were added to the media for the development of the method according to the present invention. In general, the media contained a reduced concentration of phytohormones. The hormones that were tested in the media were phytohormones that will affect growth in the desired manner during different stages of tissue culture. Examples of phytohormones that were tested include natural or synthetic auxin (2,4-D, indole-3-acetic acid (IAA), IBA), cytokinin (BA, KN,), GA3, or cytokinin-active urea derivatives (such as TDZ). The hormones were tested singly or in combination. For induction of embryogenic callus, only 2,4-D (2.26, 4.52, 6.78 and 9.02 μM) was effective.
as §1

[3] = test system: mature somatic embryos of Jatropha curcas; assay: Germination of somatic embryos and growth of plantlets on MS germination medium; type: cell-based; conditions: for growth of germinated plantlets: added to germination medium (MS with IBA and GA3); for germination of somatic embryos: auxin in combination with GA3 (0.72, 1.44, 2.88, 5.76 μM) in MS medium, IBA 1.23-4.92 μM, IAA 1.42-8.56 μM, NAA 1.34-8.04 μM
Text: as §2, §1

[4] = test system: leaf explants of J. curcas; conditions: Jha et al. (2007), cited from earlier work
[5] = test system: embryogenic callus of Jatropha curcas; assay: Production of double haploid plantlets by treating embryogenic callus with a mitotic inhibitor; type: cell-based
Protocol: Double haploid plants are produced by treating the embryogenic callus with a mitotic inhibitor. In one embodiment, the embryogenic callus is treated with the mitotic inhibitor for one day to three days, preferably three days. In one embodiment, the mitotic inhibitor is colchicine. In one embodiment, the embryogenic callus is treated with 0.1% to 0.5%, preferably 0.5% colchicine. In another embodiment, the mitotic inhibitor is oryzalin. In one embodiment, the embryogenic callus is treated with 0.1% to 0.5%, preferably 0.5% oryzalin. The mitotic inhibitor is added to the embryogenic callus induction medium, described above, prior to transfer of the embryogenic callus to the fresh initiation medium. The culture conditions for culturing in the presence of the mitotic inhibitor is the same as for somatic embryogenic callus induction. Following treatment with the mitotic inhibitor, the treated embryogenic callus is placed on fresh initiation medium for the development and maturation of somatic embryos and cultured as described above. The mature somatic embryos are placed on the germination medium and cultured as described above to germinate double haploid plantlets as described above.
Embryogenic callus prepared as described in Example 5 which is above to develop into somatic embryos (after forty days of embryogenic callus induction) was treated with different concentration of colchicines (0.1-1%) for three-days. The culture condition (temperature, photoperiod and light) are same as described above. After the colchicine treatment, the treated embryogenic callus was transferred to fresh initiation medium (MS medium containing 2,4-D (6.78 μM)) and cultured as described in Example 5 for the development of somatic embryos. The mature somatic embryos were transferred to germination media (MS medium fortified with GA3 and IBA) and cultured as described in Example 5 for plantlet development.

[6] = hormone alone in MS initiation medium, 2,4-D 2.26, 4.52, 6.78, 9.02 μM, IAA 0.71-5.70 μM, IBA 0.615-4.92 μM

Q: For O=C(O)COc1ccc(Cl)cc1Cl [2,4-D, 2,4-dichlorophenoxyacetic acid], which “somatic embryo development (globular, heart, torpedo and cotyledon-shaped)” value ([1]; MS medium containing 2,4-D) is on record?
A: effective

Q: And the “outcome of continuous culture of somatic embryos” value ([1]; continuous culture in MS medium containing 2,4-D)?
A: abnormal somatic embryo formation without germination

Q: And the “induction of embryogenic callus” value ([2]; MS medium supplemented with 2,4-D, dark conditions)?
A: induced embryogenic callus; also recorded: vital

Q: And the “induction of embryogenic callus” value ([2]; MS medium supplemented with 2,4-D, in the presence of light)?
A: not result in the induction of embryogenic callus

Q: What about the “induction of embryogenic callus” value [2, 6] of the same compound?
A: effective in inducing embryogenic callus

Q: With O=C(Nc1ccccc1)Nc1cnns1 [TDZ, thidiazuron] as the compound, how does the “growth of germinated plantlets” value [3] read?
A: enhanced the growth of germinated plantlets

Q: For O=C(O)Cc1cccc2ccccc12 [NAA], which “germination of somatic embryos” value [3] is on record?
A: not effective

Q: With Nc1ncnc2nc[nH]c12.O=S(=O)(O)O [AdSO4, adenine sulphate] as the compound, how does the “effect on somatic embryo development” value ([4]; 13.6 μM added) read?
A: stimulated the process of somatic embryo development

Q: What about the “type of callus induced” value ([2]; addition to callus induction medium) of the same compound?
A: induction of greenish compact callus that becomes non-embryogenic

Q: What about the “growth of germinated plantlets” value ([3]; sulphate) of the same compound?
A: enhanced the growth of germinated plantlets

Q: Which “most effective concentration for production of double haploid plantlets” value ([5]; 0.1-1% tested, three days treatment of embryogenic callus) does the source give for COc1cc2c(c(OC)c1OC)-c1ccc(OC)c(=O)cc1[C@@H](NC(C)=O)CC2 [colchicines, colchicine] here?
A: 0.5%

Q: And the “effect on callus at higher concentration” value ([5]; concentration above 0.5%)?
A: callus become brown and died

Q: What about the “morphological characters of treated plantlets” value ([5]; plantlets from treated embryogenic callus) of the same compound?
A: like double haploid

Q: Which “growth of germinated plantlets” value [3] does the source give for c1ccc(CNc2ncnc3nc[nH]c23)cc1 [BA, 6-benzylaminopurine] here?
A: enhanced the growth of germinated plantlets

Q: Which “induction of embryogenic callus” value [2, 6] does the source give for O=C(O)Cc1c[nH]c2ccccc12 [IAA, indole-3-acetic acid] here?
A: induced only non-embryogenic callus

Q: And the “germination of somatic embryos” value [3]?
A: not effective

Q: For c1coc(CNc2ncnc3[nH]cnc23)c1 [KN, kinetin], which “development of somatic embryos” value ([4]; MS medium with KN 2.3 μM and IBA 1.0 μM) is on record?
A: developed

Q: What about the “induction of embryogenic callus from leaf explants” value ([4]; MS medium with KN 9.3 μM) of the same compound?
A: induced

Q: And the “growth of germinated plantlets” value [3]?
A: enhanced the growth of germinated plantlets

Q: With O=C(O)CCCc1c[nH]c2ccccc12 [IBA, indole-3-butyric acid] as the compound, how does the “induction of embryogenic callus” value [2, 6] read?
A: induced only non-embryogenic callus

Q: What about the “germination of somatic embryos” value [3] of the same compound?
A: effective; also recorded: occurred
